Reference: patent US11016085B2, “ZNT8 assays for drug development and pharmaceutical compositions” (THE JOHNS HOPKINS UNIVERSITY, priority 2016, dated 2021)
“Also recorded” adds a separate entry of the source.

B1: AA-form: His-tagged human ZnT8 with H220A, D224A double mutation of the predicted transport-site (protein, UniProt Q8IWU4 1-369, looked up, variant H220A D224A)
Proton-coupled zinc …: MEFLERTYLVNDKAAKMYAFTLESVELQQKPVNKDQCPRERPEELESGGMYHCHSGSKPTEKGANEYAYAKWKLCSASAICFIFMIAEVVGGHIAGSLAVVTDAAHLLIDLTSFLLSLFSLWLSSKPPSKRLTFGWHRAEILGALLSILCIWVVTGVLVYLACERLLYPDYQIQATVMIIVSSCAVAANIVLTVVLHQRCLGHNHKEVQANASVRAAFVAALGALFQSISVLISALIIYFKPEYKIADPICTFIFSILVLASTITILKDFSILLMEGVPKSLNYSGVKELILAVDGVLSVHSLHIWSLTMNQVILSAHVATAASRDSQVVRREIAKALSKSFTMHSLTIQMESPVDQDPDCLFCEDPCD
modifications: His tag
notes: His-tagged human ZnT8 with H220A, D224A double mutation of the predicted transport-site

Experiments:
human ZnT8 R325 (R-form) = target: T1, human ZnT8 R325 (R-form) (Homo sapiens, UniProt Q8IWU4); assay: Stopped-flow zinc transport kinetics in reconstituted proteoliposomes (Fluozin-3), R325 variant; format: biochemical; conditions: for effect on zinc transport activity (Vmax), R-form: lipid in reconstituted proteoliposomes, reference level = Vmax of the AA-form; for increase of Vmax, R-form: third anionic phospholipid added to DOPC:DOPE (2:1), giving 2:1:1
T1 construct: The human ZnT8 cDNA insert was further subcloned into a pcDNA5/FRT/TO expression vector; made in house
T1 sequence (Q8IWU4 1-320 isoform Q8IWU4-2): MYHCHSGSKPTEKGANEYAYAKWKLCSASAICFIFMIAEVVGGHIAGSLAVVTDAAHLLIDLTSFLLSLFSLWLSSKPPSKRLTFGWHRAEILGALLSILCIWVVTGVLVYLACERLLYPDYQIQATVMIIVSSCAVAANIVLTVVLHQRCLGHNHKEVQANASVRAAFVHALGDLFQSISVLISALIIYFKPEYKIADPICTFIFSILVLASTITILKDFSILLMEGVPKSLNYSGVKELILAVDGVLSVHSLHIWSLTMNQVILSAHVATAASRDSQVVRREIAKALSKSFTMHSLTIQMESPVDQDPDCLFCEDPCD
Method: (§1) 24 hour after induction, early-passage cells (passage number <10) at 90% confluence were scraped on ice and collected in the assay buffer supplemented with complete mini EDTA free protease cocktail tablets as specified by the manufacturer (Sigma). Cell suspension was homogenized by 40 passages through a high-shear fluid processor at 120 psi (Microfluidics), and then the membrane fraction was pelleted by ultracentrifugation at 258k×g for 60 min. The membrane pellet was re-suspended in a solubilization buffer (assay buffer plus 25% glycerol). DDM was added to solubilize the membrane according to the weight of the membrane pellet at a DDM-to-membrane ratio of 1:5 (wt/wt). The membrane crude extract was cleared off debris by ultracentrifugation at 258k×g for 15 min. The supernatant was applied to Talon affinity resins (GE Healthcare) and incubated at 8° C. on a rotary shaker for 45 min. The resin was then minimally washed by solubilization buffer supplemented with 25 mM imidazole, and then the immobilized ZnT8 variant was eluted by increasing the imidazole concentration to 250 mM. The molecular identity of the eluted ZnT8 variant was validated by western blotting using two antibodies to the C-terminal His-tag (Cell signaling Technology, cat. #2365S, catalog number, 1:1000 dilution) and to a linear peptide epitope (Proteintech, cat. #16169-1-AP, 1:500 dilution), respectively. The purity of the eluted proteins was assessed by SDS-PAGE with imperial protein staining (Thermo Scientific). Preformed liposomes with a defined lipid composition as indicated were prepared by mixing stock solutions of lipids in chloroform. The lipid mixture was dried under a stream of nitrogen gas, and traces of chloroform were removed by placing the lipids under vacuum overnight at room temperature. Dried lipids were rehydrated in a Pyrex borosilicate glass tube with assay buffer to a lipid concentration of 50 mg/ml, and then sonicated in a cup-horn sonicator at 100 W for 2 min (cycles of 10 son, 10 s off) in an ice-chilled water bath. The resulting liposome suspension was diluted with assay buffer to a final lipid concentration of 7.5 mg/ml with DDM added at a DDM/lipids ratio of 1:1 (wt/wt). The DDM-liposome mixture was incubated at room temperature on a rotary shaker for ˜3 hours until a gel-like appearance occurred. Reconstitution of ZnT8 variants took place immediately after eluted from Talon resins by mixing a ZnT8 variant, or an equal volume of elution buffer, with DDM-destabilized preformed liposomes at an estimated protein-to-lipid wt/wt ratio of 1:200. The reconstitution mixture was incubated on a rotary shaker at 8° C. for 1 hr, then freshly prepared, methanol-washed polystyrene beads (Bio-Beads, SM-2, Bio-Rad) were added to the reconstitution mixture in a 60:1 wt/wt ratio to DDM. After incubation overnight at 8° C., the resulting proteoliposomes or liposomes (negative control) were separated from the detergent-soaked polystyrene beads, and pelleted by ultracentrifugation (258k×g, 2 hr). […]
(§2) Experiments were performed at 8° C. on a SFM-3000 stopped-flow apparatus (Bio-logic). […] The reactants were excited at 490 nm, and emissions were monitored at 525 nm using a 10 nm bandpass cut-off filter. Kinetic traces were recorded over a time course of 10 seconds with instrument offset and gain kept constant for all the experiments. […]

human ZnT8 W325 (W-form) = target: T2, human ZnT8 W325 (W-form) (Homo sapiens, UniProt Q8IWU4, R325W); assay: Stopped-flow zinc transport kinetics in reconstituted proteoliposomes (Fluozin-3), W325 variant; format: biochemical; conditions: for effect on zinc transport activity (Vmax), W-form: lipid in reconstituted proteoliposomes, reference level = Vmax of the AA-form; for increase of Vmax, W-form: third anionic phospholipid added to DOPC:DOPE (2:1), giving 2:1:1
T2 construct: The human ZnT8 cDNA insert was further subcloned into a pcDNA5/FRT/TO expression vector; made in house
T2 sequence (Q8IWU4 1-320 isoform Q8IWU4-2 R276W): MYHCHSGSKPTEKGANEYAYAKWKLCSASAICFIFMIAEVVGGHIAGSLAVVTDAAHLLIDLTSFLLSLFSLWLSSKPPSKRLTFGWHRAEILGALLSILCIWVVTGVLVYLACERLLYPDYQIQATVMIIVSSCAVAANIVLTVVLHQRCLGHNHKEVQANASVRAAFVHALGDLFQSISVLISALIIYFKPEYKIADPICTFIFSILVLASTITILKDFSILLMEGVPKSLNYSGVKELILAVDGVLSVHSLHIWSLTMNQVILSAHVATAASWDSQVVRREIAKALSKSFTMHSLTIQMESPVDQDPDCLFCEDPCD
Method: as §1, §2

[1] = target: T3, human ZnT8 AA-form (H220A, D224A) (Homo sapiens, UniProt Q8IWU4, D224A/H220A); assay: Stopped-flow zinc transport kinetics in reconstituted proteoliposomes (Fluozin-3), AA-form; format: biochemical
T3 construct: The human ZnT8 cDNA insert was further subcloned into a pcDNA5/FRT/TO expression vector; made in house
T3 sequence (Q8IWU4 1-320 isoform Q8IWU4-2 H171A/D175A): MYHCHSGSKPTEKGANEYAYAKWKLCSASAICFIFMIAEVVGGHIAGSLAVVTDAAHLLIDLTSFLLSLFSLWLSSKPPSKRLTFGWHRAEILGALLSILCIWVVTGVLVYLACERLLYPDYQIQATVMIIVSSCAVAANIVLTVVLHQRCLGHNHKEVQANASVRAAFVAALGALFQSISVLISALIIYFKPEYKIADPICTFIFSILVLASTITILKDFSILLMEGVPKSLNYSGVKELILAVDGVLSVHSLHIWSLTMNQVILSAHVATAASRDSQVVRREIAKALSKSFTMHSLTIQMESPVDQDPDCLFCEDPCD
Method: 24 hour after induction, early-passage cells (passage number <10) at 90% confluence were scraped on ice and collected in the assay buffer supplemented with complete mini EDTA free protease cocktail tablets as specified by the manufacturer (Sigma). Cell suspension was homogenized by 40 passages through a high-shear fluid processor at 120 psi (Microfluidics), and then the membrane fraction was pelleted by ultracentrifugation at 258k×g for 60 min. The membrane pellet was re-suspended in a solubilization buffer (assay buffer plus 25% glycerol). DDM was added to solubilize the membrane according to the weight of the membrane pellet at a DDM-to-membrane ratio of 1:5 (wt/wt). The membrane crude extract was cleared off debris by ultracentrifugation at 258k×g for 15 min. The supernatant was applied to Talon affinity resins (GE Healthcare) and incubated at 8° C. on a rotary shaker for 45 min. […] The purity of the eluted proteins was assessed by SDS-PAGE with imperial protein staining (Thermo Scientific). […]
as §2

HEK293 cells = assay: Vesicular zinc uptake in real time (Zinpyr-1, 96-well microplate); format: cell-based, human; conditions: 383 nM free zinc, 1 uM pyrithione, 15° C., induced expression
Method: The free zinc concentration in the ADA-EGTA dual buffering system was calculated using maxchelator (maxchelator.stanford.edu). Induced cells were loaded with Zinpry-1, trypsinized, resuspended in an ice-chilled plain uptake buffer with no ZnSO4 added. Cells with the expression of each ZnT8 variant or the empty vector were counted, adjusted to a density of 4×10^6 cells/ml, and dispensed in 50-[…] aliquots to a clear-bottom 96-well microplate (Greiner bio-one). Initial Zinpry-1 fluorescence (F0) was recorded from the bottom on a Flexstation-3 microplate reader (Molecular dynamics), and then zinc-uptakes were initiated by adding 50 ul uptake buffers with 2× free zinc concentrations to each well. The Zinpry-1 fluorescence increases in response to various free zinc concentrations were recorded at 15° C. in the kinetic mode of Flexstation over a time course of 10 min and normalized to Zinpyr-1 loading (F0). The fluorescence responses reached a linear phase in 2 min after the uptake temperature approached equilibrium. The rates of zinc uptake were calculated by linear regression of the Zinpyr-1 signals from 2 to 10 min. All measurements were performed in 12 replicates, and fluorescence readings were obtained by averaging over 8-10 measurements that gave consistent results. Most aberrant measurements occurred in the first and last two columns of the microplate due to pipetting errors.

| Molecule | effect on zinc transport activity (Vmax), R-form (human ZnT8 R325 (R-form)) | effect on zinc transport activity (Vmax), W-form (human ZnT8 W325 (W-form)) | increase of Vmax, R-form (human ZnT8 R325 (R-form)) | increase of Vmax, W-form (human ZnT8 W325 (W-form)) | also measured |
| --- | --- | --- | --- | --- | --- |
| CCCCCCCC/C=C\CCCCCCCC(=O)OC[C@H](COP(=O)(O)OCCN)OC(=O)CCCCCCC/C=C\CCCCCCCC [DOPE, 1,2-di-(9Z-octadecenoyl)-sn-glycero-3-phosphoethanolamine] | progressively reduced the Vmax | modest effects |  |  |  |
| CCCCCCCC/C=C\CCCCCCCC(=O)OC[C@H](COP(=O)(O)OCC(O)CO)OC(=O)CCCCCCC/C=C\CCCCCCCC (stereo partly shown) [DOPG] |  |  | 6.1 fold | 2.0 fold |  |
| CCCCCCCC/C=C\CCCCCCCC(=O)OC[C@H](COP(=O)(O)OC[C@H](N)C(=O)O)OC(=O)CCCCCCC/C=C\CCCCCCCC [DOPS, 1,2-dioleoyl-sn-glycero-3-phospho-L-serine] |  |  | 3.5 fold | 2.3 fold |  |
| CC(C)CCC[C@@H](C)[C@H]1CC[C@H]2[C@@H]3CC=C4C[C@@H](O)CC[C@]4(C)[C@H]3CC[C@]12C [cholesterol] | below the reference level of the AA-form; also recorded: strongly inhibit | below the reference level of the AA-form; also recorded: strongly inhibit |  |  |  |
| Lysophosphatidylcholine [LPC] | below the reference level of the AA-form; also recorded: strongly inhibit | below the reference level of the AA-form; also recorded: strongly inhibit |  |  |  |
| B1 |  |  |  |  | Km increase compared to the R-form [1]: 24 fold; Vmax/Km decrease compared to the R-form [1]: 59 fold; rate of vesicular zinc accumulation (HEK293 cells): significantly faster than the basal level of Blk |
